This is an account of results in BindingDB's records for doi:10.1021/bi00407a006 (Enscp, 1988).

Structures are written as SMILES.

The assay deals with T1, Glutamine--fructose-6-phosphate aminotransferase [isomerizing] (Escherichia coli (strain K12), UniProt P17169).
T1 sequence (P17169 whole entry): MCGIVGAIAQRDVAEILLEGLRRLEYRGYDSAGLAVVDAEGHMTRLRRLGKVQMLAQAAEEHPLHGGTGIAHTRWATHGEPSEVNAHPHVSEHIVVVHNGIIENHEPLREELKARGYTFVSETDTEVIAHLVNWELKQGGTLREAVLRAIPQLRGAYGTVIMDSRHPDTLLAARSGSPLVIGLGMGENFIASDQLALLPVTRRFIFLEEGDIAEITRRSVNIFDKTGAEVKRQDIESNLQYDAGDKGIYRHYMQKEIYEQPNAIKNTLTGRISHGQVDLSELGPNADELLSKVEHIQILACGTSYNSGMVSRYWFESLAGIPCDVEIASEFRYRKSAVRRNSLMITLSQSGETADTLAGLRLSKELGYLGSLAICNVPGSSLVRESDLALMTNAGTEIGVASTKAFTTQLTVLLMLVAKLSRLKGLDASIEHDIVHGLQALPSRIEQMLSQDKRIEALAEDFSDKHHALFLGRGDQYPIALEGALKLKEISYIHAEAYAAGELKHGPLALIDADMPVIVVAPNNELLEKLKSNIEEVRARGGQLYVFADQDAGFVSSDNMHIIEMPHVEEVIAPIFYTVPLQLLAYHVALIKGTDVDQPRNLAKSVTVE
As to `COC(=O)/C=C/C(=O)NC[C@H](N)C(=O)O` [(2S)-2-azaniumyl-3-[[(E)-4-methoxy-4-oxobut-2-enoyl]amino]propanoate], the affinity corresponds to a Ki of 0.35 µM. Take `N[C@@H](CNC(=O)/C=C/C(=O)O)C(=O)O` [(E)-4-[[(2S)-2-azaniumyl-2-carboxylatoethyl]amino]-4-oxobut-2-enoate]: affinity was put at a Ki of 55.1 µM. In turn, `N#[N+][CH-]C(=O)CC[C@H](N)C(=O)NCC(=O)O` [(Z,5S)-5-amino-6-(carboxymethylamino)-1-diazonio-6-oxohex-1-en-2-olate] came in with an inhibitory constant (Ki) of 1.4 µM.
